Like-named read-outs stand apart in the source and are kept apart here.
Columns and labels:
Experiment in all cases: Test E pre-/postemergence plant response
Assay type in all cases: in vivo
[1] = test system: windgrass (Apera spica-venti); conditions: scale 0 to 100, read-out: Plant response rating, Windgrass; for pest or weed control at 16 g/ha: 16 g ai/ha; for pest or weed control at 62 g/ha: 62 g ai/ha; for pest or weed control at 125 g/ha: 125 g ai/ha
Outline: (§1)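 Visual scores on a 0–100 scale (100 = complete control) were assigned against untreated controls 7–21 days after treatment in a controlled environment. Compounds, formulated with solvent plus surfactant, were applied to pre-emergence silt-loam sowings or to 1- to 4-leaf plants (2–18 cm) in potting medium.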

[2] = test system: winter wheat (Triticum aestivum); conditions: scale 0 to 100, read-out: Plant response rating, Wheat, Winter; for plant injury at 16 g/ha: 16 g ai/ha; for plant injury at 62 g/ha: 62 g ai/ha; for plant injury at 125 g/ha: 125 g ai/ha
Outline: as §1

[3] = test system: wild radish (Raphanus raphanistrum); conditions: scale 0 to 100, read-out: Plant response rating, Radish, Wild; for pest or weed control at 16 g/ha: 16 g ai/ha; for pest or weed control at 31 g/ha: 31 g ai/ha; for pest or weed control at 62 g/ha: 62 g ai/ha; for pest or weed control at 125 g/ha: 125 g ai/ha
Outline: as §1

[4] = test system: pigweed (Amaranthus retroflexus); conditions: scale 0 to 100, read-out: Plant response rating, Pigweed; for pest or weed control at 16 g/ha: 16 g ai/ha; for pest or weed control at 31 g/ha: 31 g ai/ha; for pest or weed control at 62 g/ha: 62 g ai/ha; for pest or weed control at 125 g/ha: 125 g ai/ha
Outline: as §1

[5] = test system: lambsquarters (Chenopodium album); conditions: scale 0 to 100, read-out: Plant response rating, Lambsquarters; for pest or weed control at 16 g/ha: 16 g ai/ha; for pest or weed control at 31 g/ha: 31 g ai/ha; for pest or weed control at 62 g/ha: 62 g ai/ha; for pest or weed control at 125 g/ha: 125 g ai/ha
Outline: as §1

[6] = test system: wild oat (Avena fatua); conditions: scale 0 to 100, read-out: Plant response rating, Oat, Wild; for pest or weed control at 16 g/ha: 16 g ai/ha; for pest or weed control at 31 g/ha: 31 g ai/ha; for pest or weed control at 62 g/ha: 62 g ai/ha; for pest or weed control at 125 g/ha: 125 g ai/ha
Outline: as §1

[7] = test system: winter barley (Hordeum vulgare); conditions: scale 0 to 100, read-out: Plant response rating, Barley, Winter; for plant injury at 16 g/ha: 16 g ai/ha; for plant injury at 31 g/ha: 31 g ai/ha; for plant injury at 62 g/ha: 62 g ai/ha; for plant injury at 125 g/ha: 125 g ai/ha
Outline: as §1

[8] = test system: canarygrass (Phalaris minor); conditions: scale 0 to 100, read-out: Plant response rating, Canarygrass; for pest or weed control at 16 g/ha: 16 g ai/ha; for pest or weed control at 31 g/ha: 31 g ai/ha; for pest or weed control at 62 g/ha: 62 g ai/ha; for pest or weed control at 125 g/ha: 125 g ai/ha
Outline: as §1

[9] = test system: bluegrass (annual bluegrass, Poa annua); conditions: scale 0 to 100, read-out: Plant response rating, Bluegrass; for pest or weed control at 16 g/ha: 16 g ai/ha; for pest or weed control at 31 g/ha: 31 g ai/ha; for pest or weed control at 62 g/ha: 62 g ai/ha; for pest or weed control at 125 g/ha: 125 g ai/ha
Outline: as §1

[10] = test system: blackgrass (Alopecurus myosuroides); conditions: scale 0 to 100, read-out: Plant response rating, Blackgrass; for pest or weed control at 16 g/ha: 16 g ai/ha; for pest or weed control at 31 g/ha: 31 g ai/ha; for pest or weed control at 62 g/ha: 62 g ai/ha; for pest or weed control at 125 g/ha: 125 g ai/ha
Outline: as §1

[11] = test system: kochia (Kochia scoparia); conditions: Bassia scoparia, scale 0 to 100, read-out: Plant response rating, Kochia; for pest or weed control at 16 g/ha: 16 g ai/ha; for pest or weed control at 31 g/ha: 31 g ai/ha; for pest or weed control at 62 g/ha: 62 g ai/ha; for pest or weed control at 125 g/ha: 125 g ai/ha
Outline: as §1

[12] = post-emergence, 31 g ai/ha, Postemergence

`FC(F)c1cc(-c2ccccc2Oc2ncc(Cl)cn2)on1` [Compound 53, 5-chloro-2-[2-[3-(difluoromethyl)-5-isoxazolyl]phenoxy]pyrimidine] was tested, and the pest or weed control at 16 g/ha ([1]; post-emergence, Postemergence) was 5%, the pest or weed control at 31 g/ha [1, 12] was 5% and the pest or weed control at 62 g/ha ([1]; post-emergence, Postemergence) was 10%. The pest or weed control at 125 g/ha ([1]; post-emergence, Postemergence) was 20%, the pest or weed control at 16 g/ha ([1]; pre-emergence, Preemergence) was 0% and the pest or weed control at 62 g/ha ([1]; pre-emergence, Preemergence) was 35%. The pest or weed control at 125 g/ha ([1]; pre-emergence, Preemergence) was 50%, the plant injury at 16 g/ha ([2]; post-emergence, Postemergence) was 5% and the plant injury at 31 g/ha [2, 12] was 5%. For the same compound, the plant injury at 62 g/ha ([2]; post-emergence, Postemergence) was 15%, the plant injury at 125 g/ha ([2]; post-emergence, Postemergence) was 35% and the plant injury at 16 g/ha ([2]; pre-emergence, Preemergence) was 15%. For the same compound, the plant injury at 62 g/ha ([2]; pre-emergence, Preemergence) was 25%, the plant injury at 125 g/ha ([2]; pre-emergence, Preemergence) was 30% and the pest or weed control at 16 g/ha ([3]; post-emergence, Postemergence) was 60%. For the same compound, the pest or weed control at 31 g/ha ([3]; post-emergence, Postemergence) was 60%, the pest or weed control at 62 g/ha ([3]; post-emergence, Postemergence) was 90% and the pest or weed control at 125 g/ha ([3]; post-emergence, Postemergence) was 90%. It also gave a pest or weed control at 16 g/ha ([3]; pre-emergence, Preemergence) of 50%, a pest or weed control at 31 g/ha ([3]; pre-emergence, Preemergence) of 70% and a pest or weed control at 62 g/ha ([3]; pre-emergence, Preemergence) of 100%. For the same compound, the pest or weed control at 125 g/ha ([3]; pre-emergence, Preemergence) was 90%, the pest or weed control at 16 g/ha ([4]; post-emergence, Postemergence) was 85% and the pest or weed control at 31 g/ha ([4]; post-emergence, Postemergence) was 85%. It also gave a pest or weed control at 62 g/ha ([4]; post-emergence, Postemergence) of 90%, a pest or weed control at 125 g/ha ([4]; post-emergence, Postemergence) of 90% and a pest or weed control at 16 g/ha ([4]; pre-emergence, Preemergence) of 30%. For the same compound, the pest or weed control at 31 g/ha ([4]; pre-emergence, Preemergence) was 20%, the pest or weed control at 62 g/ha ([4]; pre-emergence, Preemergence) was 100% and the pest or weed control at 125 g/ha ([4]; pre-emergence, Preemergence) was 100%. The pest or weed control at 16 g/ha ([5]; post-emergence, Postemergence) was 65%, the pest or weed control at 31 g/ha ([5]; post-emergence, Postemergence) was 70% and the pest or weed control at 62 g/ha ([5]; post-emergence, Postemergence) was 65%. It also gave a pest or weed control at 125 g/ha ([5]; post-emergence, Postemergence) of 75%, a pest or weed control at 16 g/ha ([5]; pre-emergence, Preemergence) of 60% and a pest or weed control at 31 g/ha ([5]; pre-emergence, Preemergence) of 75%. It also gave a pest or weed control at 62 g/ha ([5]; pre-emergence, Preemergence) of 100%, a pest or weed control at 125 g/ha ([5]; pre-emergence, Preemergence) of 100% and a pest or weed control at 16 g/ha ([6]; post-emergence, Postemergence) of 5%. It also gave a pest or weed control at 31 g/ha ([6]; post-emergence, Postemergence) of 5%, a pest or weed control at 62 g/ha ([6]; post-emergence, Postemergence) of 10% and a pest or weed control at 125 g/ha ([6]; post-emergence, Postemergence) of 25%. The pest or weed control at 16 g/ha ([6]; pre-emergence, Preemergence) was 0%, the pest or weed control at 31 g/ha ([6]; pre-emergence, Preemergence) was 0% and the pest or weed control at 62 g/ha ([6]; pre-emergence, Preemergence) was 10%. For the same compound, the pest or weed control at 125 g/ha ([6]; pre-emergence, Preemergence) was 25%, the plant injury at 16 g/ha ([7]; post-emergence, Postemergence) was 5% and the plant injury at 31 g/ha ([7]; post-emergence, Postemergence) was 5%. The plant injury at 62 g/ha ([7]; post-emergence, Postemergence) was 5%, the plant injury at 125 g/ha ([7]; post-emergence, Postemergence) was 10% and the plant injury at 16 g/ha ([7]; pre-emergence, Preemergence) was 15%. The plant injury at 31 g/ha ([7]; pre-emergence, Preemergence) was 10%, the plant injury at 62 g/ha ([7]; pre-emergence, Preemergence) was 30% and the plant injury at 125 g/ha ([7]; pre-emergence, Preemergence) was 25%. It also gave a pest or weed control at 16 g/ha ([8]; post-emergence, Postemergence) of 5%, a pest or weed control at 31 g/ha ([8]; post-emergence, Postemergence) of 10% and a pest or weed control at 62 g/ha ([8]; post-emergence, Postemergence) of 25%. It also gave a pest or weed control at 125 g/ha ([8]; post-emergence, Postemergence) of 40%, a pest or weed control at 16 g/ha ([8]; pre-emergence, Preemergence) of 10% and a pest or weed control at 31 g/ha ([8]; pre-emergence, Preemergence) of 20%. It also gave a pest or weed control at 62 g/ha ([8]; pre-emergence, Preemergence) of 65%, a pest or weed control at 125 g/ha ([8]; pre-emergence, Preemergence) of 95% and a pest or weed control at 16 g/ha ([9]; post-emergence, Postemergence) of 0%. The pest or weed control at 31 g/ha ([9]; post-emergence, Postemergence) was 0%, the pest or weed control at 62 g/ha ([9]; post-emergence, Postemergence) was 5% and the pest or weed control at 125 g/ha ([9]; post-emergence, Postemergence) was 5%. It also gave a pest or weed control at 16 g/ha ([9]; pre-emergence, Preemergence) of 10%, a pest or weed control at 31 g/ha ([9]; pre-emergence, Preemergence) of 10% and a pest or weed control at 62 g/ha ([9]; pre-emergence, Preemergence) of 20%. For the same compound, the pest or weed control at 125 g/ha ([9]; pre-emergence, Preemergence) was 25%, the pest or weed control at 16 g/ha ([10]; post-emergence, Postemergence) was 0% and the pest or weed control at 31 g/ha ([10]; post-emergence, Postemergence) was 5%. The pest or weed control at 62 g/ha ([10]; post-emergence, Postemergence) was 10%, the pest or weed control at 125 g/ha ([10]; post-emergence, Postemergence) was 25% and the pest or weed control at 16 g/ha ([10]; pre-emergence, Preemergence) was 10%. The pest or weed control at 31 g/ha ([10]; pre-emergence, Preemergence) was 10%, the pest or weed control at 62 g/ha ([10]; pre-emergence, Preemergence) was 25% and the pest or weed control at 125 g/ha ([10]; pre-emergence, Preemergence) was 30%. It also gave a pest or weed control at 16 g/ha ([11]; post-emergence, Postemergence) of 50%, a pest or weed control at 31 g/ha ([11]; post-emergence, Postemergence) of 55% and a pest or weed control at 62 g/ha ([11]; post-emergence, Postemergence) of 70%. The pest or weed control at 125 g/ha ([11]; post-emergence, Postemergence) was 80%, the pest or weed control at 16 g/ha ([11]; pre-emergence, Preemergence) was 10% and the pest or weed control at 31 g/ha ([11]; pre-emergence, Preemergence) was 15%. For the same compound, the pest or weed control at 62 g/ha ([11]; pre-emergence, Preemergence) was 55% and the pest or weed control at 125 g/ha ([11]; pre-emergence, Preemergence) was 100%.

Source: patent US10131652B2, “Pyrimidinyloxy benzene derivatives as herbicides” (E. I. DU PONT DE NEMOURS AND COMPANY, priority 2014, dated 2018)
